In US20260256145A1, “IRON AGENT FOR GROWING ANIMALS AND PLANTS, METHOD FOR PRODUCING THE SAME, AND IRON SUPPLY PREPARATION FOR GROWING ANIMALS AND PLANTS” (Sobue Clay Co., Ltd., priority 2023, published 2026):

Assays:
[1] = Change of Fe2+ ion concentration of the aqueous solution in the production process; type: physicochemical; conditions: iron mixed with the citrate solution while stirring, FIGS. 1 to 4
Method: The aqueous solution of iron citrate is prepared by any one of the following methods: a method in which citric acid, solid iron and water are stirred and mixed together; a method in which solid iron is added to citric acid having been dissolved in water, followed by stirring and mixing; and a method in which solid iron and citric acid powder are added to a required amount of citric acid having been dissolved in water, followed by stirring and mixing while, if necessary, heating. To the thus obtained aqueous solution of iron citrate is mixed sodium hydrogen carbonate while, if necessary, heating, thereby producing an aqueous solution of sodium ferrous citrate. By the addition of sodium hydrogen carbonate, the aqueous solution of sodium ferrous citrate has been alkalized to have a pH value of from 5 to 8.
FIGS. 2 to 4 respectively show the change of the Fe^2+ ion concentration of aqueous iron agent solutions 1 to 3 for growth, each of which is produced by the above-mentioned method. […] Therefore, it is judged that the aqueous iron citrate solution is not suitable as an iron agent for growth.
In the cases of aqueous sodium ferrous citrate solutions 1 to 3 shown in FIGS. 2 to 4, the Fe^2+ ion concentration is confirmed to increase, differing from the case of the aqueous iron citrate solution shown in FIG. 1. […]

plants = experiment: Consideration of Use Examples 1 to 6: plant weight index versus no iron agent; type: in vivo; conditions: no irrigation with an iron agent = 100, based on Use Examples 1 to 6
Method: (§1) An aqueous solution of sodium ferrous citrate to be irrigated was prepared by adding 150 g of citric acid to 850 ml of tap water to produce citric acid water, then adding thereto 25 g of reduced iron powder, followed by stirring, and then adding to the resultant mixture 150 g of sodium hydrogen carbonate, followed by stirring and mixing.
The following consideration is made based on the results of Use Examples 1 to 6.
When the index in the case of no irrigation with an iron agent is 100, with respect to the plant's aboveground weight, it is 116 in the case of the irrigation with the aqueous solution of iron citrate and 209 in the case of the irrigation with the aqueous solution of sodium ferrous citrate, and with respect to the plant's root weight, it is 134 in the case of the irrigation with the aqueous solution of iron citrate and 464 in the case of the irrigation with the aqueous solution of sodium ferrous citrate.

Italian parsley = experiment: Use Example 6: growth of Italian parsley irrigated with iron agent; type: in vivo; conditions: irrigation once a week, after 19 days of cultivation, in comparison with the other plants
Method: as §1
(§2) Plants not irrigated with an iron agent (left side of the figure), plants irrigated with an aqueous solution of iron citrate (center of the figure), and plants irrigated with an aqueous solution of sodium citrate (right side of the figure) as the iron supply preparation for growth of the present application were provided, and the plants were cultivated while performing irrigation on the plants at a rate of once a week, and the growth conditions after 19 days of cultivation are shown. Each of the aqueous solution of iron citrate and the aqueous solution of sodium ferrous citrate was diluted 10000 times so that the total iron content was 15000 ppm, and the Fe^2+ content was 3000 ppm for iron citrate and 12500 ppm for sodium ferrous citrate.

[2] = tested on: komatsuna (Japanese mustard spinach); experiment: Use Example 2: growth of komatsuna irrigated with iron agent; type: in vivo; conditions: irrigation once a week, after 23 days of cultivation, in comparison with the other plants
Method: as §1
as §2, with “23” for “19”

red leaf lettuce = experiment: Use Example 4: growth of red leaf lettuce irrigated with iron agent; type: in vivo; conditions: irrigation once a week, after 19 days of cultivation, in comparison with the other plants
Method: as §1, §2

parsley = experiment: Use Example 5: growth of parsley irrigated with iron agent; type: in vivo; conditions: irrigation once a week, after 19 days of cultivation, in comparison with the other plants
Method: as §1, §2

okra = experiment: Use Example 3: growth of okra irrigated with iron agent; type: in vivo; conditions: irrigation once a week, after 19 days of cultivation, in comparison with the other plants
Method: as §1, §2

molokheiya = experiment: Use Example 1: growth of molokheiya irrigated with iron agent; type: in vivo; conditions: irrigation once a week, after 30 days of cultivation, in comparison with the other plants (no iron agent, iron citrate)
Method: as §1
as §2, with “30” for “19”

| Substance | change of the Fe^2+ ion concentration of the aqueous solution [1] | index of the plant's aboveground weight (plants) | index of the plant's root weight (plants) | rooting (Italian parsley) | weight of the aboveground part (Italian parsley) | rooting [2] | weight of the aboveground part [2] | rooting (red leaf lettuce) | weight of the aboveground part (red leaf lettuce) | rooting (parsley) | weight of the aboveground part (parsley) | rooting (okra) | weight of the aboveground part (okra) | rooting (molokheiya) | weight of the aboveground part (molokheiya) |
| --- | --- | --- | --- | --- | --- | --- | --- | --- | --- | --- | --- | --- | --- | --- | --- |
| iron citrate [reference compound] | not confirmed to increase | 116 | 134 |  |  |  |  |  |  |  |  |  |  |  |  |
| sodium ferrous citrate |  | 209 | 464 | improvement | increase | improvement | increase | improvement | increase | improvement | increase | improvement | increase | improvement | increase |
